From the NIST ThermoML archive (doi:10.1016/j.jct.2009.03.009)

Experiments:
[1] = xn = mol fraction of the nth substance listed; details: 313.15 K, 101 kPa, Liquid; for speed of sound: Sing-around technique in a fixed-path interferometer; for mass density: Vibrating tube method
[2] = refractive index (Na D-line) (dimensionless); xn = mol fraction of the nth substance listed; details: 313.15 K, 101 kPa, Liquid, Standard Abbe refractometry

CCCCCC [hexane] + c1ccccc1
x1 = 1
Details | mass density [kg/m3] | refractive index | speed of sound [m/s]
[1] | 641.4 | – | 1010.3
[2] | – | 1.36411 | –

CCCCCCCC [octane] + CCc1ccccc1
x1 = 1
Details | mass density [kg/m3] | refractive index | speed of sound [m/s]
[1] | 686.3 | – | 1110.6
[2] | – | 1.38769 | –

CCCCCCCCC [nonane] + Cc1ccccc1
Details | mass density, [1] [kg/m3] | refractive index, [2] | speed of sound, [1] [m/s]
x1 = 0.1045 | 823.2 | 1.4692 | 1217.6
x1 = 0.2019 | 802.9 | 1.45691 | 1200.3
x1 = 0.3002 | 785 | 1.44571 | 1187
x1 = 0.4021 | 768.7 | 1.43571 | 1176
x1 = 0.502 | 754.5 | 1.42674 | 1167.7
x1 = 0.601 | 741.9 | 1.41934 | 1161.1
x1 = 0.696 | 731 | 1.41289 | 1156.2
x1 = 0.8032 | 719.9 | 1.40639 | 1151.8
x1 = 0.9022 | 710.6 | 1.40097 | 1148.9
x1 = 0.9501 | 706.4 | 1.3985 | 1147.7
x1 = 1 | 702.2 | 1.39609 | 1146.4

Cc1ccccc1 [toluene] + CCCCCCC
Details | mass density, [1] [kg/m3] | refractive index, [2] | speed of sound, [1] [m/s]
x2 = 0 | 848 | 1.48464 | 1240.7
x2 = 0.0496 | 835.7 | 1.47712 | 1225.2
x2 = 0.1037 | 822.8 | 1.46965 | 1211.4
x2 = 0.204 | 800.2 | 1.45586 | 1185.7
x2 = 0.406 | 759.4 | 1.43176 | 1144.8
x2 = 0.5045 | 741.5 | 1.42117 | 1127.8
x2 = 0.6016 | 724.9 | 1.41138 | 1113.1
x2 = 0.7011 | 709 | 1.40201 | 1099.4
x2 = 0.8029 | 693.7 | 1.39298 | 1087
x2 = 0.9019 | 679.7 | 1.38489 | 1075.9
x2 = 0.9517 | 673 | 1.38102 | 1071.2

c1ccccc1 [benzene] + CCCCCCC
Details | mass density, [1] [kg/m3] | refractive index, [2] | speed of sound, [1] [m/s]
x2 = 0 | 857.4 | 1.48752 | 1230
x2 = 0.0511 | 840.8 | 1.47784 | 1210.9
x2 = 0.1025 | 825.2 | 1.46808 | 1193.3
x2 = 0.1998 | 798.6 | 1.45273 | 1165.5
x2 = 0.2987 | 775 | 1.43808 | 1142.8
x2 = 0.3972 | 754.3 | 1.42586 | 1124.4
x2 = 0.5013 | 734.9 | 1.4148 | 1108.9
x2 = 0.5998 | 718.5 | 1.40552 | 1096.8
x2 = 0.698 | 703.7 | 1.39777 | 1086.4
x2 = 0.8043 | 689.4 | 1.38985 | 1077.8
x2 = 0.9013 | 677.7 | 1.38322 | 1071.6
x2 = 0.9518 | 671.9 | 1.38025 | 1068.8

CCCCCCC [heptane] + c1ccccc1
x1 = 1
Details | mass density [kg/m3] | refractive index | speed of sound [m/s]
[1] | 666.6 | – | 1066.5
[2] | – | 1.37737 | –

CCc1ccccc1 [ethylbenzene] + CCCCCCCC
Details | mass density, [1] [kg/m3] | refractive index, [2] | speed of sound, [1] [m/s]
x2 = 0 | 849.2 | 1.48426 | 1256.9
x2 = 0.0536 | 837.6 | 1.47786 | 1244.1
x2 = 0.1028 | 827.4 | 1.47159 | 1232.9
x2 = 0.2037 | 807.4 | 1.45954 | 1212.1
x2 = 0.3032 | 788.7 | 1.4483 | 1193.8
x2 = 0.4015 | 771.4 | 1.43795 | 1177.7
x2 = 0.5013 | 755 | 1.42817 | 1163.3
x2 = 0.6039 | 739.2 | 1.41883 | 1150.1
x2 = 0.701 | 725.1 | 1.41043 | 1138.8
x2 = 0.7996 | 711.6 | 1.40254 | 1128.3
x2 = 0.9012 | 698.6 | 1.39489 | 1119.3
x2 = 0.9515 | 692.3 | 1.39112 | 1115

Cc1ccccc1 [toluene] + CCCCCCCCC
x2 = 0
Details | mass density [kg/m3] | refractive index | speed of sound [m/s]
[1] | 848 | – | 1240.7
[2] | – | 1.48464 | –

c1ccccc1 [benzene] + CCCCCCCCC
x2 = 0
Details | mass density [kg/m3] | refractive index | speed of sound [m/s]
[1] | 857.4 | – | 1230
[2] | – | 1.48752 | –

CCCCCCCCC [nonane] + c1ccccc1
Details | mass density, [1] [kg/m3] | refractive index, [2] | speed of sound, [1] [m/s]
x1 = 0.0535 | 839.7 | 1.47693 | 1212.1
x1 = 0.1025 | 825.4 | 1.46801 | 1199
x1 = 0.2013 | 800.8 | 1.45327 | 1179.5
x1 = 0.3006 | 780.6 | 1.44079 | 1166.1
x1 = 0.3997 | 763.8 | 1.43104 | 1157.2
x1 = 0.5 | 749.5 | 1.42229 | 1151.4
x1 = 0.5992 | 737.3 | 1.41549 | 1147.7
x1 = 0.7052 | 726.2 | 1.40945 | 1145.9
x1 = 0.8034 | 717.2 | 1.40436 | 1145.2
x1 = 0.9018 | 709.3 | 1.3999 | 1145.6
x1 = 0.9499 | 705.7 | 1.39796 | 1145.9
x1 = 1 | 702.2 | 1.39609 | 1146.4

Cc1ccccc1 [toluene] + CCCCCCCC
x2 = 0
Details | mass density [kg/m3] | refractive index | speed of sound [m/s]
[1] | 848 | – | 1240.7
[2] | – | 1.48509 | –

CCCCCCCC [octane] + c1ccccc1
Details | mass density, [1] [kg/m3] | refractive index, [2] | speed of sound, [1] [m/s]
x1 = 0.0541 | 839.6 | 1.4762 | 1210.5
x1 = 0.1014 | 825.5 | 1.46817 | 1196.3
x1 = 0.202 | 799.3 | 1.45259 | 1172.2
x1 = 0.3022 | 777.2 | 1.4384 | 1154.3
x1 = 0.404 | 758.4 | 1.42757 | 1140.9
x1 = 0.5023 | 742.2 | 1.41799 | 1131
x1 = 0.6011 | 728.3 | 1.41072 | 1123.7
x1 = 0.7087 | 714.9 | 1.4035 | 1118
x1 = 0.8051 | 704.4 | 1.3977 | 1114.4
x1 = 0.9015 | 695 | 1.39253 | 1112.1
x1 = 0.9514 | 690.5 | 1.39004 | 1111.2
x1 = 1 | 686.3 | 1.38769 | 1110.6

CCCCCCCCC [nonane] + CCc1ccccc1
Details | mass density, [1] [kg/m3] | refractive index, [2] | speed of sound, [1] [m/s]
x1 = 0.0527 | 837.7 | 1.47759 | 1245.4
x1 = 0.1043 | 827.1 | 1.47111 | 1234.9
x1 = 0.2032 | 808.1 | 1.45968 | 1217.6
x1 = 0.3009 | 791 | 1.44884 | 1203.2
x1 = 0.4018 | 774.9 | 1.43899 | 1190.7
x1 = 0.5009 | 760.3 | 1.43055 | 1180.1
x1 = 0.6003 | 746.9 | 1.42241 | 1171.2
x1 = 0.7012 | 734.4 | 1.41482 | 1163.5
x1 = 0.8044 | 722.4 | 1.40792 | 1156.7
x1 = 0.9026 | 712 | 1.40178 | 1151.1
x1 = 0.9519 | 707 | 1.39883 | 1148.8
x1 = 1 | 702.2 | 1.39609 | 1146.4

CCc1ccccc1 [ethylbenzene] + CCCCCCCCC
x2 = 0
Details | mass density [kg/m3] | refractive index | speed of sound [m/s]
[1] | 849.2 | – | 1256.9
[2] | – | 1.48426 | –

CCCCCCC [heptane] + CCc1ccccc1
x1 = 1
Details | mass density [kg/m3] | refractive index | speed of sound [m/s]
[1] | 666.6 | – | 1066.5
[2] | – | 1.37737 | –

CCc1ccccc1 [ethylbenzene] + CCCCCCC
Details | mass density, [1] [kg/m3] | refractive index, [2] | speed of sound, [1] [m/s]
x2 = 0 | 849.2 | 1.48426 | 1256.9
x2 = 0.0494 | 838.5 | 1.47846 | 1243.9
x2 = 0.1039 | 826.9 | 1.47131 | 1229.8
x2 = 0.2025 | 806.7 | 1.4594 | 1205.9
x2 = 0.3022 | 786.8 | 1.44788 | 1183.7
x2 = 0.4038 | 767.2 | 1.43628 | 1162.6
x2 = 0.5006 | 749.3 | 1.42574 | 1144.6
x2 = 0.6003 | 731.6 | 1.41536 | 1126.9
x2 = 0.7014 | 714.3 | 1.40513 | 1109.8
x2 = 0.8048 | 697.3 | 1.39516 | 1094.8
x2 = 0.9028 | 681.7 | 1.38607 | 1079.9
